Measurements: patent US20240246960A1 (adMare Therapeutics Society, priority 2021, published 2024)

Experiments:
DNA-PK = biological target: T1, DNA-PK (Homo sapiens, UniProt P78527); assay: DNA-PK Assay for Biochemical Enzymatic Inhibition (ADP Glo Kinase assay); conditions: Table 1
T1 construct: purchased Invitrogen PR9107A
Outline: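 Human DNA-PK (25 ng) preincubated 15 min with compounds (ten three-fold dilutions) in HEPES pH 7.5, MgCl2, KCl, calf thymus DNA buffer, then substrate 434.4 μM and ATP 64.4 μM (final) for 60 min at room temperature. ADP-Glo luminescence; percent inhibition fitted by four-parameter regression for IC50.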

[1] = biological target: T2, DNA-PK phosphorylation at Serine 2056 (Homo sapiens, UniProt P78527); assay: Cellular Assay for Inhibition of DNA-PK Phosphorylation at Serine 2056 (FaDu cells, neocarzinostatin, sandwich ELISA); format: cell-based; conditions: Table 1
T2 construct: host or cells: FaDu
Outline: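 Readout was pSer2056 and total DNA-PK, measured by sandwich ELISA on protein-normalized lysates. Prior to lysis, compound was applied to FaDu cells for 1 h (0.3% DMSO), followed by 2 h of 1 μg/mL neocarzinostatin. IC50 values were fitted from log concentration versus % inhibition normalized to DMSO and NCS controls.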

Row | SMILES | IC50 (DNA-PK) [nM] | IC50 [1] [nM]
1 | O=C(N[C@H]1CC[C@@H](Oc2nc(N3CCOCC3)cc3ncccc23)CC1)c1ccncn1 [Compound 118, N-((1s,4s)-4-((7-morpholino-1,6-naphthyridin-5-yl)oxy)cyclohexyl)pyrimidine-4-carboxamide] | 0.5 to 1 | 100 to 1000
2 | Cn1cnc2cnc(N[C@H]3CC[C@@H](Oc4nc(N5CCOCC5)cc5ncccc45)CC3)nc21 [Compound 88, 9-Methyl-N-((1s,4s)-4-((7-morpholino-1,6-naphthyridin-5-yl)oxy)cyclohexyl)-9H-purin-2-amine] | 0.5 to 1 | 100 to 1000
3 | c1cnc2cc(N3CCOCC3)nc(O[C@H]3CC[C@@H](Nc4ccn5nccc5n4)CC3)c2c1 [Compound 89, N-((1s,4s)-4-((7-Morpholino-1,6-naphthyridin-5-yl)oxy)cyclohexyl)pyrazolo[1,5-a]pyrimidin-5-amine] | 0.5 to 1 | 100 to 1000
4 | Oc1cnc(N[C@H]2CC[C@@H](Oc3nc(N4CCOCC4)cc4ncccc34)CC2)nc1 [Compound 45, 2-(((1s,4s)-4-((7-morpholino-1,6-naphthyridin-5-yl)oxy)cyclohexyl)amino)pyrimidin-5-ol] | 0.5 to 1 | < 100
5 | FC(F)c1ccc2c(O[C@H]3CC[C@@H](Nc4ncccn4)CC3)nc(N3CCOCC3)cc2n1 [Compound 21, N-((1s,4s)-4-((2-(Difluoromethyl)-7-morpholino-1,6-naphthyridin-5-yl)oxy)cyclohexyl)pyrimidin-2-amine] | 0.5 to 1 | 100 to 1000
6 | Cc1nc(C(F)(F)F)cn1[C@H]1CC[C@@H](Oc2nc(N3CCOCC3)cc3ncccc23)CC1 [Compound 17i, 4-(5-(((1s,4s)-4-(2-methyl-4-(trifluoromethyl)-1H-imidazol-1-yl)cyclohexyl)oxy)-1,6-naphthyridin-7-yl)morpholine] | 0.5 to 1 | 100 to 1000
7 | c1cnc(N[C@H]2CC[C@@H](Oc3nc(N4CCOCC4)cc4ncccc34)CC2)nc1 [Compound 20a, N-((1s,4s)-4-((7-Morpholino-1,6-naphthyridin-5-yl)oxy)cyclohexyl)pyrimidin-2-amine] | 0.5 to 1 | 100 to 1000
8 | c1cnc2cc(N3CCOCC3)nc(O[C@H]3CC[C@@H](Nc4ncnc5ccoc45)CC3)c2c1 [Compound 80a, N-((1s,4s)-4-((7-morpholino-1,6-naphthyridin-5-yl)oxy)cyclohexyl)furo[3,2-d]pyrimidin-4-amine] | < 0.5 | 100 to 1000
9 | CCOCCOc1cnc(N[C@H]2CC[C@@H](Oc3nc(N4CCOCC4)cc4ncc(O)cc34)CC2)nc1 [Compound 19b, 5-(((1s,4s)-4-((5-(2-Ethoxyethoxy)pyrimidin-2-yl)amino)cyclohexyl)oxy)-7-morpholino-1,6-naphthyridin-3-ol] | 1 to 10 | 100 to 1000
10 | Cn1cnc(N[C@H]2CC[C@@H](Oc3nc(N4CCOCC4)cc4ncccc34)CC2)n1 [Compound 31, 1-methyl-N-((1s,4s)-4-((7-morpholino-1,6-naphthyridin-5-yl)oxy)cyclohexyl)-1H-1,2,4-triazol-3-amine] | < 0.5 | 100 to 1000
11 | FC(F)(F)c1cnc(N[C@H]2CC[C@@H](Oc3nc(N4CCOCC4)cc4ncccc34)CC2)nc1 [Compound 34, N-((1s,4s)-4-((7-Morpholino-1,6-naphthyridin-5-yl)oxy)cyclohexyl)-5-(trifluoromethyl)pyrimidin-2-amine] | 0.5 to 1 | 100 to 1000

Second part, the compound after the results:

Row | IC50 (DNA-PK) [nM] | IC50 [1] [nM] | SMILES
12 | < 0.5 | < 100 | Cn1ccc2nc(N[C@H]3CC[C@@H](Oc4nc(N5CCOCC5)cc5ncccc45)CC3)ncc21 [Compound 87, 5-Methyl-N-((1s,4s)-4-((7-morpholino-1,6-naphthyridin-5-yl)oxy)cyclohexyl)-5H-pyrrolo[3,2-d]pyrimidin-2-amine]
13 | < 0.5 | < 100 | O=C(N[C@H]1CC[C@@H](Oc2nc(N3CCOCC3)cc3ncccc23)CC1)c1cc[nH]c1 [Compound 140, N-((1s,4s)-4-((7-morpholino-1,6-naphthyridin-5-yl)oxy)cyclohexyl)-1H-pyrrole-3-carboxamide]
14 | < 0.5 | < 100 | CS(=O)(=O)Nc1cnc(N[C@H]2CC[C@@H](Oc3nc(N4CCOCC4)cc4ncccc34)CC2)nc1 [Compound 44, N-(2-(((1s,4s)-4-((7-morpholino-1,6-naphthyridin-5-yl)oxy)cyclohexyl)amino)pyrimidin-5-yl)methanesulfonamide]
15 | < 0.5 | < 100 | O=C(N[C@H]1CC[C@@H](Oc2nc(N3CCOCC3)cc3ncccc23)CC1)c1ccco1 [Compound 132, N-((1s,4s)-4-((7-Morpholino-1,6-naphthyridin-5-yl)oxy)cyclohexyl)furan-2-carboxamide]
16 | < 0.5 | < 100 | CS(=O)(=O)Nc1cnc2cc(N3CCOCC3)nc(O[C@H]3CC[C@@H](Nc4ncccn4)CC3)c2c1 [Compound 185, N-(7-morpholino-5-(((1s,4s)-4-(pyrimidin-2-ylamino)cyclohexyl)oxy)-1,6-naphthyridin-3-yl)methanesulfonamide]
17 | < 0.5 | 100 to 1000 | c1cnc2cc(N3CCOCC3)nc(O[C@H]3CC[C@@H](Nc4ncc5sccc5n4)CC3)c2c1 [Compound 84, N-((1s,4s)-4-((7-Morpholino-1,6-naphthyridin-5-yl)oxy)cyclohexyl)thieno[3,2-d]pyrimidin-2-amine]
